Assay results reported in PubChem BioAssay AID1963875 (Molecular Pharmacology Branch, DTP, NCI, 2024).

System: KRAS-mutant PDC complex spheroid viability
Experiment: Anticancer human tumor 186277-243-T-J2-PDC patient-derived colon adenocarcinoma cell line growth inhibition [KRAS2]
Details: for viability, T/C: stronger effect = lower value
Summary of the method: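 Combination screen of spheroid viability in tumor-cell co-cultures with endothelial (HUVEC) and mesenchymal stem cell stroma. Each agent was tested in half-log dilutions, topping at clinical Cmax or at 10 microM without a known Cmax.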

[1] = curve of first compound, second compound 0.1 µM
[2] = curve of first compound, second compound 0.316 µM
[3] = curve of first compound, second compound 1 µM
[4] = curve of first compound, second compound 3.16 µM
[5] = curve of first compound, second compound 10 µM
[6] = second compound 0.1 µM, first compound 0.0316 µM
[7] = second compound 0.1 µM, first compound 0.1 µM
[8] = second compound 0.1 µM, first compound 0.316 µM
[9] = second compound 0.1 µM, first compound 1 µM
[10] = second compound 0.1 µM, first compound 3.16 µM
[11] = second compound 0.1 µM, first compound 10 µM
[12] = second compound 0.316 µM, first compound 0.0316 µM
[13] = second compound 0.316 µM, first compound 0.1 µM
[14] = second compound 0.316 µM, first compound 0.316 µM
[15] = second compound 0.316 µM, first compound 1 µM
[16] = second compound 0.316 µM, first compound 3.16 µM
[17] = second compound 0.316 µM, first compound 10 µM
[18] = second compound 1 µM, first compound 0.0316 µM
[19] = second compound 1 µM, first compound 0.1 µM
[20] = second compound 1 µM, first compound 0.316 µM
[21] = second compound 1 µM, first compound 1 µM
[22] = second compound 1 µM, first compound 3.16 µM
[23] = second compound 1 µM, first compound 10 µM
[24] = second compound 3.16 µM, first compound 0.0316 µM
[25] = second compound 3.16 µM, first compound 0.1 µM
[26] = second compound 3.16 µM, first compound 0.316 µM
[27] = second compound 3.16 µM, first compound 1 µM
[28] = second compound 3.16 µM, first compound 3.16 µM
[29] = second compound 3.16 µM, first compound 10 µM
[30] = second compound 10 µM, first compound 0.0316 µM
[31] = second compound 10 µM, first compound 0.1 µM
[32] = second compound 10 µM, first compound 0.316 µM
[33] = second compound 10 µM, first compound 1 µM
[34] = second compound 10 µM, first compound 3.16 µM
[35] = second compound 10 µM, first compound 10 µM
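Wherever viability, T/C is given: viability read after seven days of compound exposure; 100% = DMSO vehicle-treated spheroids so lower means less viable.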

Structure (SMILES): COC(=O)c1ccc2c(C(=Nc3ccc(N(C)C(=O)CN4CCN(C)CC4)cc3)c3ccccc3)c(O)[nH]c2c1 + C=CC(=O)N1CCN(c2nc(=O)n(-c3c(C)ccnc3C(C)C)c3nc(-c4c(O)cccc4F)c(F)cc23)C(C)C1
- IC50 [1]: 2130 nM
- IC50 [2]: 882 nM
- IC50 [3]: 1570 nM
- IC50 [4]: 462 nM
- IC50 [5]: 204 nM
- viability, T/C [6]: 95.6%
- viability, T/C [7]: 93%
- viability, T/C [8]: 94.4%
- viability, T/C [9]: 104%
- viability, T/C [10]: 25.4%
- viability, T/C [11]: 12.7%
- viability, T/C [12]: 87.5%
- viability, T/C [13]: 96.1%
- viability, T/C [14]: 97.7%
- viability, T/C [15]: 44.6%
- viability, T/C [16]: 19.7%
- viability, T/C [17]: 6.92%
- viability, T/C [18]: 96%
- viability, T/C [19]: 92.9%
- viability, T/C [20]: 102%
- viability, T/C [21]: 73%
- viability, T/C [22]: 13.7%
- viability, T/C [23]: 3.67%
- viability, T/C [24]: 96.1%
- viability, T/C [25]: 96.8%
- viability, T/C [26]: 53.5%
- viability, T/C [27]: 33.5%
- viability, T/C [28]: 6.72%
- viability, T/C [29]: 3.16%
- viability, T/C [30]: 56.1%
- viability, T/C [31]: 63.4%
- viability, T/C [32]: 43.5%
- viability, T/C [33]: 12.5%
- viability, T/C [34]: 1.11%
- viability, T/C [35]: 0.14%

Structure (SMILES): COc1cc(Nc2ncc3c(n2)-c2ccc(Cl)cc2C(c2c(F)cccc2OC)=NC3)ccc1C(=O)O + C=CC(=O)N1CCN(c2nc(=O)n(-c3c(C)ccnc3C(C)C)c3nc(-c4c(O)cccc4F)c(F)cc23)C(C)C1
- IC50 [1]: < 31.6 nM
- IC50 [2]: < 31.6 nM
- IC50 [3]: < 31.6 nM
- IC50 [4]: < 31.6 nM
- IC50 [5]: < 31.6 nM
- viability, T/C [6]: 25.1%
- viability, T/C [8]: 22.8%
- viability, T/C [9]: 34%
- viability, T/C [10]: 50.2%
- viability, T/C [11]: 50.6%
- viability, T/C [12]: 28.5%
- viability, T/C [13]: 29.5%
- viability, T/C [14]: 32.6%
- viability, T/C [15]: 38.1%
- viability, T/C [16]: 46.8%
- viability, T/C [17]: 49.2%
- viability, T/C [18]: 23.2%
- viability, T/C [19]: 23.8%
- viability, T/C [20]: 32.7%
- viability, T/C [21]: 38.5%
- viability, T/C [22]: 50.1%
- viability, T/C [23]: 46.7%
- viability, T/C [24]: 29.2%
- viability, T/C [25]: 30.8%
- viability, T/C [26]: 32.8%
- viability, T/C [27]: 36.9%
- viability, T/C [28]: 43%
- viability, T/C [29]: 35.7%
- viability, T/C [30]: 20.7%
- viability, T/C [31]: 29.2%
- viability, T/C [32]: 21.1%
- viability, T/C [33]: 27.9%
- viability, T/C [34]: 27.7%
- viability, T/C [35]: 20.7%

Structure (SMILES): CC(=O)Nc1cccc(-n2c(=O)n(C3CC3)c(=O)c3c(Nc4ccc(I)cc4F)n(C)c(=O)c(C)c32)c1 + C=CC(=O)N1CCN(c2nc(=O)n(-c3c(C)ccnc3C(C)C)c3nc(-c4c(O)cccc4F)c(F)cc23)C(C)C1
- IC50 [1]: 0.625 nM
- IC50 [2]: 0.659 nM
- IC50 [3]: 0.583 nM
- IC50 [4]: 0.444 nM
- IC50 [5]: 0.11 nM
- viability, T/C (second compound 0.1 µM, first compound 0.0001 µM): 99.2%
- viability, T/C (second compound 0.1 µM, first compound 0.000316 µM): 96.3%
- viability, T/C (second compound 0.1 µM, first compound 0.001 µM): 18%
- viability, T/C (second compound 0.1 µM, first compound 0.00316 µM): 8.67%
- viability, T/C (second compound 0.1 µM, first compound 0.01 µM): 2.97%
- viability, T/C [6]: 1.31%
- viability, T/C (second compound 0.316 µM, first compound 0.0001 µM): 100%
- viability, T/C (second compound 0.316 µM, first compound 0.000316 µM): 99.7%
- viability, T/C (second compound 0.316 µM, first compound 0.001 µM): 21.9%
- viability, T/C (second compound 0.316 µM, first compound 0.00316 µM): 9%
- viability, T/C (second compound 0.316 µM, first compound 0.01 µM): 3.1%
- viability, T/C [12]: 1.46%
- viability, T/C (second compound 1 µM, first compound 0.0001 µM): 111%
- viability, T/C (second compound 1 µM, first compound 0.000316 µM): 86.7%
- viability, T/C (second compound 1 µM, first compound 0.001 µM): 17.4%
- viability, T/C (second compound 1 µM, first compound 0.00316 µM): 7.6%
- viability, T/C (second compound 1 µM, first compound 0.01 µM): 4.82%
- viability, T/C [18]: 1.76%
- viability, T/C (second compound 3.16 µM, first compound 0.0001 µM): 90.9%
- viability, T/C (second compound 3.16 µM, first compound 0.000316 µM): 65.8%
- viability, T/C (second compound 3.16 µM, first compound 0.001 µM): 11.9%
- viability, T/C (second compound 3.16 µM, first compound 0.00316 µM): 9.32%
- viability, T/C (second compound 3.16 µM, first compound 0.01 µM): 2.47%
- viability, T/C [24]: 1.47%
- viability, T/C (second compound 10 µM, first compound 0.0001 µM): 53.6%
- viability, T/C (second compound 10 µM, first compound 0.000316 µM): 9.73%
- viability, T/C (second compound 10 µM, first compound 0.001 µM): 3.83%
- viability, T/C (second compound 10 µM, first compound 0.00316 µM): 4.23%
- viability, T/C (second compound 10 µM, first compound 0.01 µM): 0.78%
- viability, T/C [30]: 0.43%

Structure (SMILES): COc1cc2nccc(Oc3ccc(NC(=O)C4(C(=O)Nc5ccc(F)cc5)CC4)cc3)c2cc1OC
- viability, T/C (compound 0.0316 µM): 92.6% [middle of 5 runs]
- viability, T/C (compound 0.1 µM): 99.7% [middle of 5 runs]
- viability, T/C (compound 0.316 µM): 104% [middle of 5 runs]
- viability, T/C (compound 3.16 µM): 13.8% [middle of 5 runs]
- IC50 (curve of compound): 2.02 µM [middle of 4 runs]

Structure (SMILES): CNCc1ccccc1-c1csc(C(C)Nc2nc(C)nc3cc(OC)c(OC)cc23)c1 (stereo unspecified)
- viability, T/C (compound 0.1 µM): 100% [middle of 17 runs]
- viability, T/C (compound 0.316 µM): 98.9% [middle of 17 runs]
- viability, T/C (compound 10 µM): 0.16% [middle of 12 runs]
- IC50 (compound alone, run of 07/12/2021): 5.56 µM [middle of 6 runs]
- IC50 (compound alone, run of 07/19/2021): 2.27 µM [middle of 5 runs]
- IC50 (compound alone, run of 07/26/2021): 5.05 µM [middle of 6 runs]

Structure (SMILES): COc1cc2nccc(Oc3ccc(NC(=O)C4(C(=O)Nc5ccc(F)cc5)CC4)cc3)c2cc1OC + C=CC(=O)N1CCN(c2nc(OCC3CCCN3C)nc3c2CCN(c2cccc4cccc(C)c24)C3)CC1CC#N
- IC50 (curve of first compound, second compound 0.0316 µM): 1880 nM
- IC50 [1]: 1890 nM
- IC50 [2]: 1720 nM
- IC50 [3]: 1060 nM
- IC50 [4]: < 31.6 nM
- viability, T/C (second compound 0.0316 µM, first compound 0.0316 µM): 108%
- viability, T/C (second compound 0.0316 µM, first compound 0.1 µM): 107%
- viability, T/C (second compound 0.0316 µM, first compound 0.316 µM): 114%
- viability, T/C (second compound 0.0316 µM, first compound 1 µM): 95.5%
- viability, T/C (second compound 0.0316 µM, first compound 3.16 µM): 12.5%
- viability, T/C (second compound 0.0316 µM, first compound 10 µM): 12.3%
- viability, T/C [6]: 113%
- viability, T/C [7]: 122%
- viability, T/C [8]: 110%
- viability, T/C [9]: 97.8%
- viability, T/C [10]: 11.4%
- viability, T/C [11]: 10.8%
- viability, T/C [12]: 109%
- viability, T/C [13]: 108%
- viability, T/C [14]: 116%
- viability, T/C [15]: 85.3%
- viability, T/C [16]: 10.5%
- viability, T/C [17]: 11.3%
- viability, T/C [18]: 107%
- viability, T/C [19]: 109%
- viability, T/C [20]: 112%
- viability, T/C [21]: 52.5%
- viability, T/C [22]: 3.98%
- viability, T/C [23]: 0.37%
- viability, T/C [24]: 0.41%
- viability, T/C [25]: 0.44%
- viability, T/C [26]: 0.24%
- viability, T/C [27]: 0.21%
- viability, T/C [28]: 0.13%
- viability, T/C [29]: 0.2%

Structure (SMILES): COC(=O)c1ccc2c(C(=Nc3ccc(N(C)C(=O)CN4CCN(C)CC4)cc3)c3ccccc3)c(O)[nH]c2c1
- viability, T/C (compound 0.0316 µM): 93.8% [middle of 5 runs]
- viability, T/C (compound 0.1 µM): 104% [middle of 5 runs]
- viability, T/C (compound 0.316 µM): 99.4% [middle of 5 runs]
- viability, T/C (compound 1 µM): 107% [middle of 5 runs]
- viability, T/C (compound 10 µM): 16% [middle of 5 runs]
- IC50 (curve of compound): 3.62 µM [middle of 4 runs]
